This is an account of results in patent US20240270732A1, “RECEPTOR-INTERACTING PROTEIN INHIBITOR, PREPARATION METHOD THEREFOR, AND USE THEREOF” (CHENGDU BIOBEL BIOTECHNOLOGY CO., LTD, priority 2021, published 2024).

One test deals with human RIP1 kinase (Homo sapiens (Human), UniProt Q13546). Kind of test: Inhibitory activity on RIP1 kinase (ADP-Glo). The test is classed as biochemical. The note with it: human RIP kinase 25 nM. The procedure: The compound of the present invention and the control compound were dissolved in the assay buffer (50 mM Hepes pH 7.5, 50 mM NaCl, 30 mM MgCl2, 1 mM DTT, 0.02% CHAPS, 0.5 mg/mL BSA), and diluted in a ratio of 1:1.5 using a 22-point titration (high concentration 2 μM), and then added to a 384-well plate. […] After completion of the reaction, 5 μL of ADP-Glo reagent containing 0.02% CHAPS was added to each well and incubated at room temperature for 1 h to terminate the kinase reaction and use up all remaining ATP. Then, 5 μL of ADP-Glo detection solution containing 0.02% CHAPS was added to each well and incubated at room temperature for 30 min to measure the emittance intensity. For each ATP concentration, the activity data was obtained by the emittance intensity minus the control intensity.

In another test the test system is U937 cells. Kind of test: Inhibition of necrosis of U937 cells induced by TNF-α (CellTiter-Glo). The test is classed as cell-based. Conditions: Homo sapiens, U-937; TNF-α 100 ng/ml + AT-406 1 μM + z-VAD-FMK 20 μM, 24 h. The procedure:
(§1) After the cells were incubated in a 5% CO2 incubator at 37° C. for 24 h, the test compound of the present invention and the control compound were diluted to the corresponding pre-determined concentration using the medium, and added to the 384-well plate at 5 μL/well. […] Then, 30 μL of CellTiter-Glo luminescent solution was added to each well, and shaken for 2 min. After standing at room temperature for 10 min, the absorbance was measured using an enzyme-linked immunosorbent assay (ELISA). […] A is the group without necrosis-inducing agents, and B is the group with necrosis-inducing agents.
In general terms: ATP-based viability assays read luminescence as a measure of living cells.

Test [1] deals with human colon cancer cells HT-29. Kind of test: Inhibition of necrosis of HT-29 cells induced by TNF-α (CellTiter-Glo). The test is classed as cell-based. Conditions: Homo sapiens, HT-29; TNF-α 100 ng/ml + AT-406 1 μM + z-VAD-FMK 20 μM, 24 h. The procedure:
as §1, with “ELISA.” for “an enzyme-linked immunosorbent assay (ELISA).”, “agents. […] A is the group without necrosis-inducing agents, B is the group with necrosis-inducing agents, and X is the group with compounds and necrosis-inducing agents.” for “agents.”

The test system of test [2] is human pancreatic cancer cells PANC-1. Kind of test: Inhibition of necrosis of PANC-1 cells induced by TNF-α (CellTiter-Glo). The test is classed as cell-based. Conditions: Homo sapiens, PANC-1; TNF-α 100 ng/ml + AT-406 1 μM + z-VAD-FMK 20 μM, 24 h. Here is the method: as §1, with “ELISA.” for “an enzyme-linked immunosorbent assay (ELISA).”, “agents. […] A is the group without necrosis-inducing agents, B is the group with necrosis-inducing agents, and X is the group with compounds and necrosis-inducing agents.” for “agents.”

In a further test the test system is HacaT cells. Kind of test: Inhibition of necrosis of HacaT cells induced by TNF-α (CellTiter-Glo). The test is classed as cell-based. The note with it: Homo sapiens, TNF-α 100 ng/ml + AT-406 1 μM + z-VAD-FMK 20 μM, 24 h. Here is the method:
[…] (purchased from ATCC) in logarithmic growth phase were collected and resuspended in 1640 medium, and then the cell concentration was adjusted to 20 cells/μL, to obtain cell suspension, which was seeded in 384-well plate, with 20 μL cell suspension for each well. After the cells were cultured in a 5% CO2 incubator at 37° C. for 24 h, the test compound of the present invention and the control compound were diluted to the corresponding pre-determined concentration using the medium, and added to the 384-well plate at 5 µL/well. […] Then, 30 μL of CellTiter-Glo luminescent solution was added to each well, and shaken for 2 min. After standing at room temperature for 10 min, the absorbance was measured using ELISA. […] A is the group without necrosis-inducing agents, and B is the group with necrosis-inducing agents.

human RIP1 kinase, sequence (Q13546 whole entry): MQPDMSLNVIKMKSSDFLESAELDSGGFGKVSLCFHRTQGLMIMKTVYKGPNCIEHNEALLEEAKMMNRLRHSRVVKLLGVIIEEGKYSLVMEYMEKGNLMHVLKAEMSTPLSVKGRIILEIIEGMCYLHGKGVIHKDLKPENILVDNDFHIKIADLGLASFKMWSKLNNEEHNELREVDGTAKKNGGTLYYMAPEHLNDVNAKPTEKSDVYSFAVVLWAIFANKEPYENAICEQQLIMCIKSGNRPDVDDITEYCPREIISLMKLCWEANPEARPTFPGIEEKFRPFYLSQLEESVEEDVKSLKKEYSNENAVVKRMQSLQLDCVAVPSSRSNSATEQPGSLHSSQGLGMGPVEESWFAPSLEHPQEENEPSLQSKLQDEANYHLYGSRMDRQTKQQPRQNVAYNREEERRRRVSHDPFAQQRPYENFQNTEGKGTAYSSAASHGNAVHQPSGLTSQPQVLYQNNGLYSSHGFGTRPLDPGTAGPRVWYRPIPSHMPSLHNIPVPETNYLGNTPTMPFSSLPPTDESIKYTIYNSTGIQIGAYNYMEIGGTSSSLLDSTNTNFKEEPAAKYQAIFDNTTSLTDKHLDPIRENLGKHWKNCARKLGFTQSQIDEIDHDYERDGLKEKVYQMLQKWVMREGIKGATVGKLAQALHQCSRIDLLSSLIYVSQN

As usually defined, the IC50 is the midpoint of a concentration-inhibition curve. For `CN1C(=O)[C@@H](NC(=O)c2ncn(Cc3ccccc3)n2)COc2ccc(C#CCN3CCN(CC#Cc4ccc5c(c4)N(C)C(=O)[C@@H](NC(=O)c4ncn(Cc6ccccc6)n4)CO5)CC3)cc21` [Compound I-30], the concentration for half-maximal inhibition (IC50) against human RIP1 kinase is 2.62 nM; in the test with U937 cells, 4.89 nM; in test [1], 16.6 nM; in test [2], 16 nM; in the test with HacaT cells it was 4.07 nM.
